Results from US11963985B2, “Coral composite extract, composition including the same and method of producing the same” (National Sun Yat-Sen University, priority 2018, dated 2024).

Assay: partition coefficient (log P) of EXC-B
Format: physicochemical
Method: Next, as STEP 103 depicts, the crude extraction step is performed on the coral staring material to obtain a crude extract, in which a first solvent is applied. In one embodiment, there is no limitation of the kind of the first solvent. However, the one having a polarity index P′ value closer to a polarity index P′ value of the coral composite extract is the better. For example, a partition coefficient (log P) of EXC-B is about 0.9 and an octanol-water partition coefficient (Clog P) of EXC-B is about 3.5568. Therefore, the polarity index P′ value of the first solvent can be 0.1 to 6.0, but 1.0 to 5.4 is better.

Substance: excavatolide B [EXC-B]
- partition coefficient (log P): about 0.9
